Results reported in PubChem BioAssay (NCI).
“And” between values parts separate entries of the source, which are not always exact repeats. Identical values can stand only once.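 Interpolation was linear, between the two tested concentrations surrounding the appropriate level; five concentrations were tested over 48 hours in 96-well plates. Here, GI50 denotes the concentration required for 50% inhibition of growth. At the TGI there is no net growth.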

Key:
Test in all cases: NCI tumour cell line growth inhibition, 48 h
TK-10 renal = system: TK-10 renal
EKVX NSCLC = system: EKVX NSCLC
MALME-3M melanoma = system: MALME-3M melanoma
M14 melanoma = system: M14 melanoma
MDA-MB-231 breast = system: MDA-MB-231 breast
HOP-92 NSCLC = system: HOP-92 NSCLC
MDA-MB-435 = system: MDA-MB-435
HCC-2998 colon = system: HCC-2998 colon

For `Cc1ncc([N+](=O)[O-])n1CCNS(=O)(=O)CCCn1ccnc1[N+](=O)[O-]`, which TGI (TK-10 renal) is on record?
Its TGI is greater than 100 µM.

What about the TGI (EKVX NSCLC) of the same compound?
Its TGI is greater than 100 µM.

What about the TGI (MALME-3M melanoma) of the same compound?
Its TGI is greater than 100 µM.

And the TGI (M14 melanoma)?
Its TGI is greater than 100 µM.

What about the TGI (MDA-MB-231 breast) of the same compound?
Its TGI is greater than 100 µM.

And the TGI (HOP-92 NSCLC)?
Its TGI is greater than 100 µM.

What about the TGI (MDA-MB-435) of the same compound?
Its TGI is greater than 100 µM.

Which GI50 (TK-10 renal) does the source give for `C[C@@H]1O[C@@H](O[C@@H]2[C@@H](O)[C@H](OCCc3ccc(O)c(O)c3)O[C@H](COC(=O)/C=C/c3ccc(O)c(O)c3)[C@H]2O)[C@H](O)[C@H](O)[C@H]1O` here?
Its GI50 is greater than 100 µM.

And the TGI (TK-10 renal)?
The TGI was greater than 100 µM.

What about the GI50 (EKVX NSCLC) of the same compound?
The GI50 was 36.3 µM.

And the TGI (EKVX NSCLC)?
The TGI was greater than 100 µM.

And the GI50 (M14 melanoma)?
The GI50 was greater than 100 µM.

What about the TGI (M14 melanoma) of the same compound?
Its TGI is greater than 100 µM.

What about the GI50 (MDA-MB-231 breast) of the same compound?
Its GI50 is greater than 100 µM.

What about the TGI (MDA-MB-231 breast) of the same compound?
The TGI was greater than 100 µM.

What about the GI50 (MDA-MB-435) of the same compound?
Its GI50 is 19.9 µM.

What about the TGI (MDA-MB-435) of the same compound?
Its TGI is 40.1 µM.

`c1cc2c(cc1C(N1CCNCC1)N1CCNCC1)OCO2` was tested. Which TGI (TK-10 renal) did it give?
The TGI was greater than 100 µM.

What about the TGI (EKVX NSCLC) of the same compound?
Its TGI is greater than 100 µM.

What about the TGI (MALME-3M melanoma) of the same compound?
The TGI was greater than 100 µM.

What about the TGI (M14 melanoma) of the same compound?
The TGI was greater than 100 µM.

And the TGI (MDA-MB-231 breast)?
The TGI was greater than 100 µM.

And the TGI (HOP-92 NSCLC)?
The TGI was greater than 100 µM.

What about the TGI (MDA-MB-435) of the same compound?
Its TGI is greater than 100 µM.

What does the source list for `C=C1C(=O)O[C@@H]2C1C[C@@H](O)/C(C)=C/C/C=C(\C)CCC[C@H](C)[C@H]2OC(C)=O` (stereo partly specified)?
GI50 (TK-10 renal): 24.2 µM; TGI (TK-10 renal): 52.7 µM; GI50 (EKVX NSCLC): 23.8 µM; TGI (EKVX NSCLC): 59.1 µM; GI50 (M14 melanoma): 19.4 µM; TGI (M14 melanoma): 44.1 µM; GI50 (MDA-MB-231 breast): 24.3 µM; TGI (MDA-MB-231 breast): 49.6 µM; GI50 (HCC-2998 colon): 31.7 µM; TGI (HCC-2998 colon): > 100 µM; GI50 (MDA-MB-435): 24.4 µM; TGI (MDA-MB-435): 58 µM

Which GI50 (TK-10 renal) does the source give for `CCOC(=O)Cc1csc(/N=C2\NC(=O)/C(=C3\C(=O)N(C)c4ccccc43)S2)n1` here?
Its GI50 is 31.9 µM.

What about the TGI (TK-10 renal) of the same compound?
Its TGI is greater than 100 µM.

And the GI50 (EKVX NSCLC)?
Its GI50 is 44.1 µM.

And the TGI (EKVX NSCLC)?
The TGI was greater than 100 µM.

And the GI50 (MALME-3M melanoma)?
The GI50 was 21.8 µM.

What about the TGI (MALME-3M melanoma) of the same compound?
The TGI was 95.2 µM.

What about the GI50 (MDA-MB-231 breast) of the same compound?
The GI50 was 37.4 µM.

And the TGI (MDA-MB-231 breast)?
The TGI was greater than 100 µM.

And the GI50 (HCC-2998 colon)?
Its GI50 is 46.1 µM.

And the TGI (HCC-2998 colon)?
The TGI was greater than 100 µM.

And the GI50 (HOP-92 NSCLC)?
The GI50 was 52.3 µM.

And the TGI (HOP-92 NSCLC)?
The TGI was greater than 100 µM.

What about the GI50 (MDA-MB-435) of the same compound?
The GI50 was 36.6 µM.

And the TGI (MDA-MB-435)?
The TGI was greater than 100 µM.

How did the GI50 (TK-10 renal) turn out when `CCCCCNC(=O)[C@@H]1CCCN2C(=O)CC[C@H](NC(=O)[C@H](Cc3ccc(OP(=O)(O)O)cc3)NC(C)=O)C(=O)N12` was run?
The GI50 was greater than 25 µM.

What about the TGI (TK-10 renal) of the same compound?
The TGI was greater than 25 µM.

And the GI50 (MALME-3M melanoma)?
The GI50 was greater than 25 µM.

What about the TGI (MALME-3M melanoma) of the same compound?
Its TGI is greater than 25 µM.

What about the GI50 (M14 melanoma) of the same compound?
Its GI50 is greater than 25 µM.

What about the TGI (M14 melanoma) of the same compound?
Its TGI is greater than 25 µM.

What about the GI50 (MDA-MB-231 breast) of the same compound?
The GI50 was greater than 25 µM.

What about the TGI (MDA-MB-231 breast) of the same compound?
Its TGI is greater than 25 µM.

And the GI50 (HCC-2998 colon)?
Its GI50 is greater than 25 µM.

What about the TGI (HCC-2998 colon) of the same compound?
The TGI was greater than 25 µM.

And the GI50 (MDA-MB-435)?
Its GI50 is greater than 25 µM.

And the TGI (MDA-MB-435)?
The TGI was greater than 25 µM.

What does the source list for `O=C1/C(=C/c2ccc(O)c([N+](=O)[O-])c2)CCC/C1=C\c1ccc(O)c([N+](=O)[O-])c1`?
GI50 (TK-10 renal): 38.8 µM; TGI (TK-10 renal): 50 µM and > 100 µM; GI50 (EKVX NSCLC): 15 µM; TGI (EKVX NSCLC): 50 µM and 28.8 µM; GI50 (MALME-3M melanoma): 12.3 µM; TGI (MALME-3M melanoma): 26.3 µM and 26.2 µM; GI50 (M14 melanoma): 14.6 µM; TGI (M14 melanoma): 31.8 µM and 29.7 µM; GI50 (MDA-MB-231 breast): 16.4 µM; TGI (MDA-MB-231 breast): 50 µM and 39.3 µM; TGI (HCC-2998 colon): 16 µM; GI50 (MDA-MB-435): 1.53 µM; TGI (MDA-MB-435): 21.3 µM and 5.35 µM

What does the source list for `COc1ccc(/C=C2\CN(C(=O)C(Cl)Cl)C/C(=C\c3ccc(OC)c(OC)c3)C2=O)cc1OC`?
GI50 (EKVX NSCLC): 0.366 µM; TGI (EKVX NSCLC): 1.87 µM; GI50 (M14 melanoma): 0.0926 µM; TGI (M14 melanoma): 0.356 µM; GI50 (MDA-MB-231 breast): 0.344 µM; TGI (MDA-MB-231 breast): 1.39 µM; GI50 (HCC-2998 colon): 0.39 µM; TGI (HCC-2998 colon): 1.44 µM; GI50 (HOP-92 NSCLC): 0.532 µM; TGI (HOP-92 NSCLC): 3.79 µM; GI50 (MDA-MB-435): 0.0528 µM; TGI (MDA-MB-435): 0.265 µM

`O=C(c1cc(F)c(Cl)cc1Cl)N1N=C(c2ccccc2)CC1(O)c1ccccc1` (stereo unspecified) was tested. Which GI50 (TK-10 renal) did it give?
Its GI50 is 30.8 µM.

And the TGI (TK-10 renal)?
Its TGI is 80.8 µM.

What about the GI50 (EKVX NSCLC) of the same compound?
Its GI50 is 19.2 µM.

What about the TGI (EKVX NSCLC) of the same compound?
Its TGI is 65.5 µM.

What about the GI50 (MALME-3M melanoma) of the same compound?
The GI50 was 25.5 µM.

What about the TGI (MALME-3M melanoma) of the same compound?
The TGI was 55.6 µM.

And the GI50 (MDA-MB-231 breast)?
The GI50 was 15.7 µM.

What about the TGI (MDA-MB-231 breast) of the same compound?
Its TGI is 33.3 µM.

What about the GI50 (HCC-2998 colon) of the same compound?
The GI50 was 16.9 µM.

What about the TGI (HCC-2998 colon) of the same compound?
The TGI was 37.8 µM.

And the GI50 (HOP-92 NSCLC)?
The GI50 was 13 µM.

And the TGI (HOP-92 NSCLC)?
Its TGI is 29.8 µM.

What about the GI50 (MDA-MB-435) of the same compound?
Its GI50 is 22.1 µM.

What about the TGI (MDA-MB-435) of the same compound?
Its TGI is 49.4 µM.
